Experimental findings from patent US12435044B2, “Pyridazinone herbicides and pyridazinone intermediates used to prepare a herbicide” (FMC Corporation, priority 2018, dated 2025) are described below.

Assay type in all cases: in vivo
For experiment [1], the system named is common ragweed (AMBEL; Ambrosia artemisiifolia). As to the kind of experiment: Test G preemergence, mixtures of Cpd. No. 20 with (b15C1). The text has this: (§1) This test evaluated the effect of mixtures of Cpd. No. 20 with (b15C1) on several plant species. Seeds of plant species selected from corn (ZEAMD; Zea mays, cv. ‘Pioneer 1184’), soybean (GLXMA; Glycine max, cv. Pioneer 35T58), giant foxtail (SETFA; Setaria faberi), barnyardgrass (ECHCG; Echinochloa crus-galli), large crabgrass (DIGSA; Digitaria sanguinalis), palmer amaranth (AMAPA; Amaranthus palmeri), common waterhemp (AMATU; Amaranthus rudis), and common ragweed (AMBEL; Ambrosia artemisiifolia) were planted in pots containing Tama Silt Loam soil and treated preemergence with a directed soil spray using test chemicals formulated in a non-phytotoxic solvent mixture which included a surfactant.
(§2) Treated plants and untreated controls were maintained in a greenhouse for approximately 21 d, after which time all treated plants were compared to untreated controls and visually evaluated for injury. Plant response ratings, summarized in Table G, are based on a 0 to 100 scale where 0 is no effect and 100 is complete control. A dash (-) response means no test result. Test results are presented as a mean of 4 reps.

Experiment [2] has as its system large crabgrass (DIGSA; Digitaria sanguinalis). The experiment is described as above.
Description: as §1, §2

For experiment [3], the system named is barnyardgrass (ECHCG; Echinochloa crus-galli). Described as above.
Description: as §1, §2

Experiment [4] concerns giant foxtail (SETFA; Setaria faberi). The experiment is described as above.
Description: as §1, §2

The subject of experiment [5] is corn (ZEAMD; Zea mays, cv. ‘Pioneer 1184’). The description is as above.
Description: as §1, §2

Experiment [6] has as its system common waterhemp (AMATU; Amaranthus rudis). The experiment is described as above.
Description: as §1, §2

Experiment [7] concerns palmer amaranth (AMAPA; Amaranthus palmeri). Described as above.
Description: as §1, §2

The subject of experiment [8] is soybean (GLXMA; Glycine max, cv. Pioneer 35T58). Described as above.
Description: as §1, §2

Experiment [9] has as its system rice (ORYSS; Oryza sativa, cv. M202). As to the kind of experiment: Test M postemergence, mixtures of Cpd. No. 20 with isoxadifen-ethyl, cloquintocet-mexyl or Mefenpyr-diethyl. The conditions noted are these: approx. 14 d, second component alone 31 g a.i./ha. An excerpt: (§3) This test evaluated the effect of mixtures of Cpd. No. 20 with isoxadifen-ethyl, or cloquintocet-mexyl, or Mefenpyr-diethyl on several plant species. Seeds of plant species selected from corn (ZEAMD; Zea mays, cv. ‘Pioneer 1184’), soybean (GLXMA; Glycine max, cv. Pioneer 35T58), winter wheat (TRZAW; Triticum aetivum, cv. Arezzo), winter barley (HORVW; Hordeum vulgare, cv. Boone), rice (ORYSS; Oryza sativa, cv. M202), and giant foxtail (SETFA; Setaria faberi) were planted in pots containing Redi-Earth® planting medium (Scotts Company, 14111 Scottslawn Road, Marysville, Ohio 43041) comprising spaghnum peat moss, vermiculite, wetting agent and starter nutrients and treated postemergence using test chemicals formulated in a non-phytotoxic solvent mixture which included a surfactant. Plants ranged in height from 7 to 10 cm and were in the one- to two-leaf stage for the postemergence treatment. Treated plants and untreated controls were maintained in a greenhouse for approximately 14 d, after which time all treated plants were compared to untreated controls and visually evaluated for injury. Plant response ratings, summarized in Tables M1 to M3, are based on a 0 to 100 scale where 0 is no effect and 100 is complete control. A dash (-) response means no test result. Test results are presented as a mean of 3 reps.

Experiment [10] relates to winter barley (HORVW; Hordeum vulgare, cv. Boone). The experiment is described as above. The conditions noted are these: approx. 14 d, second component alone 31 g a.i./ha.
Description: as §3

In experiment [11] the test system is giant foxtail (SETFA; Setaria faberi). The experiment is described as above. The conditions noted are these: approx. 14 d, second component alone 31 g a.i./ha.
Description: as §3

Experiment [12] deals with corn (ZEAMD; Zea mays, cv. ‘Pioneer 1184’). Described as above. As to conditions: approx. 14 d, second component alone 31 g a.i./ha.
Description: as §3

The test system of experiment [13] is winter wheat (TRZAW; Triticum aetivum, cv. Arezzo). Described as above. As to conditions: approx. 14 d, second component alone 31 g a.i./ha.
Description: as §3

The subject of experiment [14] is soybean (GLXMA; Glycine max, cv. Pioneer 35T58). The experiment is described as above. As to conditions: approx. 14 d, second component alone 31 g a.i./ha.
Description: as §3

Experiment [15] relates to rice (ORYSS; Oryza sativa, cv. M202). The experiment in a line: Test of Tables L1 to L3, postemergence, mixtures of Cpd. No. 20 with benoxacor, isoxadifen-ethyl, or cloquintocet-mexyl.
Description: as §3, with “with benoxacor,” for “with”, “or cloquintocet-mexyl” for “or cloquintocet-mexyl, or Mefenpyr-diethyl”, “Arezzo),” for “Arezzo), winter barley (HORVW; Hordeum vulgare, cv. Boone),”, “Tables L1” for “Tables M1”, “to L3,” for “to M3,”, “of 4” for “of 3”

Experiment [16] relates to giant foxtail (SETFA; Setaria faberi). The experiment is described as above.
Description: as §3, with “with benoxacor,” for “with”, “or cloquintocet-mexyl” for “or cloquintocet-mexyl, or Mefenpyr-diethyl”, “Arezzo),” for “Arezzo), winter barley (HORVW; Hordeum vulgare, cv. Boone),”, “Tables L1” for “Tables M1”, “to L3,” for “to M3,”, “of 4” for “of 3”

For experiment [17], the system named is corn (ZEAMD; Zea mays, cv. ‘Pioneer 1184’). The description is as above.
Description: as §3, with “with benoxacor,” for “with”, “or cloquintocet-mexyl” for “or cloquintocet-mexyl, or Mefenpyr-diethyl”, “Arezzo),” for “Arezzo), winter barley (HORVW; Hordeum vulgare, cv. Boone),”, “Tables L1” for “Tables M1”, “to L3,” for “to M3,”, “of 4” for “of 3”

In experiment [18] the test system is winter wheat (TRZAW; Triticum aetivum, cv. Arezzo). The experiment is described as above.
Description: as §3, with “with benoxacor,” for “with”, “or cloquintocet-mexyl” for “or cloquintocet-mexyl, or Mefenpyr-diethyl”, “Arezzo),” for “Arezzo), winter barley (HORVW; Hordeum vulgare, cv. Boone),”, “Tables L1” for “Tables M1”, “to L3,” for “to M3,”, “of 4” for “of 3”

Experiment [19] relates to soybean (GLXMA; Glycine max, cv. Pioneer 35T58). The experiment is described as above.
Description: as §3, with “with benoxacor,” for “with”, “or cloquintocet-mexyl” for “or cloquintocet-mexyl, or Mefenpyr-diethyl”, “Arezzo),” for “Arezzo), winter barley (HORVW; Hordeum vulgare, cv. Boone),”, “Tables L1” for “Tables M1”, “to L3,” for “to M3,”, “of 4” for “of 3”

Where [20] appears, read: approx. 14 d, Cloquintocet-mexyl alone 31 g a.i./ha.

Regarding `FC(F)c1cc(-c2c(Cl)cccc2Oc2ncc(Cl)cn2)on1` [(b15C1), 5-chloro-2-[3-chloro-2-[3-(difluoromethyl)-5-isoxazolyl]phenoxy]-pyrimidine, reference compound], the “Plant response rating (0 to 100 scale)” value in experiment [1] ((b15C1) 8 g a.i./ha alone) is reported as 54; in experiment [1] ((b15C1) 16 g a.i./ha alone) it was 90; in experiment [1] ((b15C1) 31 g a.i./ha alone) it was 100; in experiment [2] ((b15C1) 8 g a.i./ha alone), 54; in experiment [2] ((b15C1) 16 g a.i./ha alone), 90; in experiment [2] ((b15C1) 31 g a.i./ha alone) it was 100. Also, the “Plant response rating (0 to 100 scale)” value was found to be 0 in experiment [3] ((b15C1) 8 g a.i./ha alone); 0 in [3] ((b15C1) 16 g a.i./ha alone); 35 in experiment [3] ((b15C1) 31 g a.i./ha alone); 5 in [4] ((b15C1) 8 g a.i./ha alone); 34 in experiment [4] ((b15C1) 16 g a.i./ha alone); 74 in experiment [4] ((b15C1) 31 g a.i./ha alone). For the same molecule, the “Plant response rating (0 to 100 scale)” value in [5] ((b15C1) 8 g a.i./ha alone) was 0; in [5] ((b15C1) 16 g a.i./ha alone), 0; in [5] ((b15C1) 31 g a.i./ha alone) it was 0; in [6] ((b15C1) 8 g a.i./ha alone), 0; in experiment [6] ((b15C1) 16 g a.i./ha alone), 0; in experiment [6] ((b15C1) 31 g a.i./ha alone), 20. Moreover, the “Plant response rating (0 to 100 scale)” value in [7] ((b15C1) 8 g a.i./ha alone) stood at 60; in experiment [7] ((b15C1) 16 g a.i./ha alone), 88; in experiment [7] ((b15C1) 31 g a.i./ha alone), 97; in [8] ((b15C1) 8 g a.i./ha alone), 0; in experiment [8] ((b15C1) 16 g a.i./ha alone), 0; in [8] ((b15C1) 31 g a.i./ha alone), 0.

Consider `CCOC(=O)C1=NN(c2ccc(Cl)cc2Cl)C(C)(C(=O)OCC)C1` (stereo not shown) [Mefenpyr-diethyl, reference compound], for which, in experiment [9], the “Plant response rating (0 to 100 scale) ORYSS” value is on record as 0. The “Plant response rating (0 to 100 scale) HORVW” value in experiment [10] stood at 0. The “Plant response rating (0 to 100 scale) SETFA” value in experiment [11] is reported as 0. Besides, the “Plant response rating (0 to 100 scale) ZEAMD” value in [12] was 0. Moreover, the “Plant response rating (0 to 100 scale) TRZAW” value in [13] came out at 0. For the same molecule, in experiment [14], the “Plant response rating (0 to 100 scale) GLXMA” value was found to be 0.

Turning to `CCCCCC(C)OC(=O)COc1ccc(Cl)c2cccnc12` (stereo not shown) [Cloquintocet-mexyl, cloquintocet-mexyl, reference compound], the “Plant response rating (0 to 100 scale) ORYSS” value in experiment [9] and in experiment [15] (setting [20]) was 0 each time. Also, the “Plant response rating (0 to 100 scale) HORVW” value in experiment [10] is 0. The “Plant response rating (0 to 100 scale) SETFA” value in [11] and in [16] (setting [20]) was 0 throughout. Further, the “Plant response rating (0 to 100 scale) ZEAMD” value in experiment [12] and in experiment [17] (setting [20]) was 0 throughout. Further, the “Plant response rating (0 to 100 scale) TRZAW” value in experiment [13] and in [18] (setting [20]) was 0 in each case. Also, the “Plant response rating (0 to 100 scale) GLXMA” value in experiment [14] and in experiment [19] (setting [20]) was 0 each time.

Turning to `CCOC(=O)C1=NOC(c2ccccc2)(c2ccccc2)C1` [Isoxadifen-ethyl, isoxadifen-ethyl, reference compound], the “Plant response rating (0 to 100 scale) ORYSS” value in experiment [9] is recorded as 0. Moreover, in [10], the “Plant response rating (0 to 100 scale) HORVW” value stood at 0. Besides, the “Plant response rating (0 to 100 scale) SETFA” value in experiment [11] is given as 0. In addition, in experiment [12], the “Plant response rating (0 to 100 scale) ZEAMD” value worked out at 0. Besides, the “Plant response rating (0 to 100 scale) TRZAW” value in experiment [13] came out at 0. Also, the “Plant response rating (0 to 100 scale) GLXMA” value in experiment [14] is 0. For the same molecule, in experiment [15] (31 g a.i./ha), the “ORYSS plant response rating, 0 to 100 scale” value was 8. The “SETFA plant response rating, 0 to 100 scale” value in experiment [16] (31 g a.i./ha) is 0. Moreover, in experiment [17] (31 g a.i./ha), the “ZEAMD plant response rating, 0 to 100 scale” value was found to be 0. Further, the “TRZAW plant response rating, 0 to 100 scale” value in experiment [18] (31 g a.i./ha) is listed as 0. For the same molecule, the “GLXMA plant response rating, 0 to 100 scale” value in experiment [19] (31 g a.i./ha) turned out to be 10.
